System: KRAS patient-derived spheroids with HUVEC/MSC, viability
Assay: Anticancer human tumor 941728-121-R-J1-PDC patient-derived lung adenocarcinoma cell line growth inhibition [KRAS2]
Conditions: for viability, T/C: stronger effect = lower value
Outline: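 KRAS-mutant tumor cells were grown as spheroids with HUVEC endothelial cells and human MSCs as stroma. Targeted agents were tested alone and with KRAS pathway inhibitors. Doses started at or near clinical Cmax, or 10 microM, descending half-log.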

[1] = curve of first compound, second compound 0.1 µM
[2] = curve of first compound, second compound 0.316 µM
[3] = curve of first compound, second compound 1 µM
[4] = curve of first compound, second compound 3.16 µM
[5] = curve of first compound, second compound 10 µM
[6] = second compound 0.1 µM, first compound 0.0316 µM
[7] = second compound 0.1 µM, first compound 0.1 µM
[8] = second compound 0.1 µM, first compound 0.316 µM
[9] = second compound 0.1 µM, first compound 1 µM
[10] = second compound 0.1 µM, first compound 3.16 µM
[11] = second compound 0.1 µM, first compound 10 µM
[12] = second compound 0.316 µM, first compound 0.0316 µM
[13] = second compound 0.316 µM, first compound 0.1 µM
[14] = second compound 0.316 µM, first compound 0.316 µM
[15] = second compound 0.316 µM, first compound 1 µM
[16] = second compound 0.316 µM, first compound 3.16 µM
[17] = second compound 0.316 µM, first compound 10 µM
[18] = second compound 1 µM, first compound 0.0316 µM
[19] = second compound 1 µM, first compound 0.1 µM
[20] = second compound 1 µM, first compound 0.316 µM
[21] = second compound 1 µM, first compound 1 µM
[22] = second compound 1 µM, first compound 3.16 µM
[23] = second compound 1 µM, first compound 10 µM
[24] = second compound 3.16 µM, first compound 0.0316 µM
[25] = second compound 3.16 µM, first compound 0.1 µM
[26] = second compound 3.16 µM, first compound 0.316 µM
[27] = second compound 3.16 µM, first compound 1 µM
[28] = second compound 3.16 µM, first compound 3.16 µM
[29] = second compound 3.16 µM, first compound 10 µM
[30] = second compound 10 µM, first compound 0.0316 µM
[31] = second compound 10 µM, first compound 0.1 µM
[32] = second compound 10 µM, first compound 0.316 µM
[33] = second compound 10 µM, first compound 1 µM
[34] = second compound 10 µM, first compound 3.16 µM
[35] = second compound 10 µM, first compound 10 µM
[36] = second compound 0.1 µM, first compound 0.01 µM
[37] = second compound 0.316 µM, first compound 0.01 µM
[38] = second compound 1 µM, first compound 0.01 µM
[39] = second compound 3.16 µM, first compound 0.01 µM
[40] = second compound 10 µM, first compound 0.01 µM
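Also: spheroids exposed to agents for seven days before readout.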

Compound	IC50 [1] [nM]	IC50 [2] [nM]	IC50 [3] [nM]	IC50 [4] [nM]	viability, T/C [6] [%]	viability, T/C [7] [%]	viability, T/C [8] [%]	viability, T/C [9] [%]	viability, T/C [10] [%]	viability, T/C [12] [%]	viability, T/C [13] [%]	viability, T/C [14] [%]	viability, T/C [15] [%]	viability, T/C [16] [%]	viability, T/C [18] [%]	viability, T/C [19] [%]	viability, T/C [20] [%]	viability, T/C [21] [%]	viability, T/C [22] [%]	viability, T/C [24] [%]	also measured
Cn1nccc1Nc1nccc(-c2cc3c(s2)C(C)(C)N(CCN2CCOCC2)C3=O)n1 + C=CC(=O)N1CCN(c2nc(=O)n(-c3c(C)ccnc3C(C)C)c3nc(-c4c(O)cccc4F)c(F)cc23)C(C)C1	< 31.6	< 31.6	< 31.6	< 31.6	23.9	23.4	19	19.6	17.7	25.4	24.4	20.2	18.9	16.8	26.1	27.4	21.1	19.9	17.8	30.6	IC50 [5]: < 31.6 nM; viability, T/C [11]: 20.7%; viability, T/C [17]: 21.4%; viability, T/C [23]: 29.4%; viability, T/C [25]: 31.4%; viability, T/C [26]: 24.9%; viability, T/C [27]: 23.6%; viability, T/C [28]: 22.9%; viability, T/C [29]: 32.3%; viability, T/C [30]: 36.4%; viability, T/C [31]: 38%; viability, T/C [32]: 30.7%; viability, T/C [33]: 30%; viability, T/C [34]: 34.2%; viability, T/C [35]: 57.5%
COc1cc2nccc(Oc3ccc(NC(=O)C4(C(=O)Nc5ccc(F)cc5)CC4)cc3)c2cc1OC + C=CC(=O)N1CCN(c2nc(=O)n(-c3c(C)ccnc3C(C)C)c3nc(-c4c(O)cccc4F)c(F)cc23)C(C)C1	< 31.6	< 31.6	< 31.6	< 31.6	14.6	14.5	12.8	11.6	7.75	15	15.7	11.6	11.6	6.81	17.4	16.8	14.5	12.3	6.93	17.6	IC50 [5]: < 31.6 nM; viability, T/C [11]: 8.03%; viability, T/C [17]: 8.86%; viability, T/C [23]: 8.12%; viability, T/C [25]: 16.4%; viability, T/C [26]: 15.3%; viability, T/C [27]: 16.7%; viability, T/C [28]: 7.9%; viability, T/C [29]: 8.84%; viability, T/C [30]: 19.1%; viability, T/C [31]: 19.5%; viability, T/C [32]: 15.3%; viability, T/C [33]: 13%; viability, T/C [34]: 8.1%; viability, T/C [35]: 9.93%
CC1COCCN1c1cc(-c2ccnn2C)c2ccnc(-c3ccn[nH]3)c2n1 (stereo not given) + C=CC(=O)N1CCN(c2nc(=O)n(-c3c(C)ccnc3C(C)C)c3nc(-c4c(O)cccc4F)c(F)cc23)C(C)C1	< 10	< 10	< 10	< 10	20.3	18.5	16.3	13.1	10.7	23.2	19.2	19.1	13.5	10.5	24.6	21	17.5	14.1	14	27.1	IC50 [5]: < 10 nM; viability, T/C [36]: 23.9%; viability, T/C [37]: 23.6%; viability, T/C [38]: 25.1%; viability, T/C [39]: 26.2%; viability, T/C [25]: 24.2%; viability, T/C [26]: 21.2%; viability, T/C [27]: 20.1%; viability, T/C [28]: 16.5%; viability, T/C [40]: 33.3%; viability, T/C [30]: 34.8%; viability, T/C [31]: 31.9%; viability, T/C [32]: 28.4%; viability, T/C [33]: 25.4%; viability, T/C [34]: 30.5%
COc1cc(Nc2ncc3c(n2)-c2ccc(Cl)cc2C(c2c(F)cccc2OC)=NC3)ccc1C(=O)O																					viability, T/C (compound 1 µM): 63.3% [middle of 5 runs]; viability, T/C (compound 3.16 µM): 55% [middle of 5 runs]; viability, T/C (compound 10 µM): 50.9% [middle of 5 runs]
CCN1CCN(Cc2ccc(Nc3ncc(F)c(-c4cc(F)c5nc(C)n(C(C)C)c5c4)n3)nc2)CC1																					viability, T/C (compound 0.00316 µM): 86.1% [middle of 5 runs]; viability, T/C (compound 0.01 µM): 71.3% [middle of 5 runs]; viability, T/C (compound 0.0316 µM): 60.2% [middle of 5 runs]; viability, T/C (compound 0.1 µM): 59.9% [middle of 5 runs]; viability, T/C (compound 0.316 µM): 60.4% [middle of 5 runs]; viability, T/C (compound 1 µM): 74.5% [middle of 5 runs]; IC50 (curve of compound): > 1000 nM
CC1COCCN1c1cc(-c2ccnn2C)c2ccnc(-c3ccn[nH]3)c2n1 (stereo not given) + COc1cc2nc(C)nc(NC(C)c3cc(N)cc(C(F)(F)F)c3)c2cc1OC1CCOC1	25.8	30.7	14.5	< 10	49.5	39.9	33.9	26.8	20.3	49.5	36.8	27.2	21.9	23.6	42.7	32.9	27.9	22.5	18.6	32	IC50 [5]: < 10 nM; viability, T/C [36]: 56%; viability, T/C [37]: 58.2%; viability, T/C [38]: 53.6%; viability, T/C [39]: 36.3%; viability, T/C [25]: 25.4%; viability, T/C [26]: 18.2%; viability, T/C [27]: 8.31%; viability, T/C [28]: 15.9%; viability, T/C [40]: 17.4%; viability, T/C [30]: 21.6%; viability, T/C [31]: 21.9%; viability, T/C [32]: 11.4%; viability, T/C [33]: 9.32%; viability, T/C [34]: 6.09%
Cn1nccc1Nc1nccc(-c2cc3c(s2)C(C)(C)N(CCN2CCOCC2)C3=O)n1 + C=CC(=O)N1CCN(c2nc(OCC3CCCN3C)nc3c2CCN(c2cccc4cccc(C)c24)C3)CC1CC#N	< 31.6	< 31.6	< 31.6	< 31.6	26.6	24.5	22.1	18.8	20.7	26.1	24.2	21.4	21.9	19.1	27.1	26.8	23	29.2	22.2	1.07	IC50 (curve of first compound, second compound 0.0316 µM): < 31.6 nM; viability, T/C (second compound 0.0316 µM, first compound 0.0316 µM): 29.5%; viability, T/C (second compound 0.0316 µM, first compound 0.1 µM): 28.2%; viability, T/C (second compound 0.0316 µM, first compound 0.316 µM): 25.1%; viability, T/C (second compound 0.0316 µM, first compound 1 µM): 19.9%; viability, T/C (second compound 0.0316 µM, first compound 3.16 µM): 22.3%; viability, T/C (second compound 0.0316 µM, first compound 10 µM): 29.2%; viability, T/C [11]: 28.4%; viability, T/C [17]: 29.2%; viability, T/C [23]: 34.1%; viability, T/C [25]: 0.7%; viability, T/C [26]: 1.22%; viability, T/C [27]: 1.67%; viability, T/C [28]: 0.97%; viability, T/C [29]: 0.27%
O=C(c1cc(Cc2n[nH]c(=O)c3ccccc23)ccc1F)N1CCN(C(=O)C2CC2)CC1 + CNCc1ccccc1-c1csc(C(C)Nc2nc(C)nc3cc(OC)c(OC)cc23)c1	> 10000	< 31.6	< 31.6	< 31.6	59	65.2	53.3	54.6	65.6	47.1	45.5	52.7	55.1	51.4	40.2	48	47.3	51.7	49.8	0.61	IC50 [5]: < 31.6 nM; viability, T/C [11]: 67.8%; viability, T/C [17]: 67%; viability, T/C [23]: 58.5%; viability, T/C [25]: 1.87%; viability, T/C [26]: 0.81%; viability, T/C [27]: 0.22%; viability, T/C [28]: 2.29%; viability, T/C [29]: 0.22%; viability, T/C [30]: 0.42%; viability, T/C [31]: 0.09%; viability, T/C [32]: 0.09%; viability, T/C [33]: 0.09%; viability, T/C [34]: 0.2%; viability, T/C [35]: 0.14%

Source: PubChem BioAssay AID1963862 (Molecular Pharmacology Branch, DTP, NCI, 2024)
